Laboratory results from ChEMBL document CHEMBL1201862, “PubChem BioAssay data set” (2004).
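In this assay, cells in 96-well plates receive the compound at five concentrations for 48 hours. Endpoints are linearly interpolated between the surrounding concentrations. Here, GI50 denotes the concentration required for 50% inhibition of growth.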 The source made the active and inactive calls. No stated cut-off is given here; in the data, active = GI50 up to about 1.1 µM and inactive = higher.

Legend:
Assay in all cases: DTP human tumour cell line panel, 48 h
KM12 = test system: KM12
TK-10 = test system: TK-10
SK-MEL-2 = test system: SK-MEL-2
HL-60 = test system: HL-60
K562 = test system: K562
LOX IMVI = test system: LOX IMVI
MDA-MB-435 = test system: MDA-MB-435
MOLT-4 = test system: MOLT-4
HT-29 = test system: HT-29
RPMI-8226 = test system: RPMI-8226
ACHN = test system: ACHN
MDA-MB-231 = test system: MDA-MB-231
SF-539 = test system: SF-539
UACC-257 = test system: UACC-257
NCI-H23 = test system: NCI-H23
RXF 393 = test system: RXF 393
OVCAR-4 = test system: OVCAR-4
NCI-H460 = test system: NCI-H460
HOP-62 = test system: HOP-62
NCI-H226 = test system: NCI-H226

Measured: GI50

C=C(Cl)C(C)(Cl)CCC(Cl)C(C)C (stereo not given)
inactive: KM12 > 100 µM | TK-10 > 100 µM | SK-MEL-2 > 100 µM | HL-60 44.3 µM | K562 51.5 µM | LOX IMVI 15.3 µM | MDA-MB-435 > 100 µM | MOLT-4 36.7 µM | HT-29 66.8 µM | RPMI-8226 48.6 µM | ACHN > 100 µM | MDA-MB-231 > 100 µM | SF-539 > 100 µM | UACC-257 > 100 µM | NCI-H23 > 100 µM | RXF 393 > 100 µM | OVCAR-4 > 100 µM | NCI-H460 > 100 µM | HOP-62 > 100 µM | NCI-H226 > 100 µM

CCOC(=O)c1c(Br)c(-c2ccc(Br)cc2)c(Br)n1C
inactive: KM12 10.2 µM | TK-10 39 µM | SK-MEL-2 > 10 µM | HL-60 6.59 µM | K562 5.08 µM | LOX IMVI 7.16 µM | MDA-MB-435 3.15 µM | MOLT-4 16.4 µM | HT-29 11.7 µM | RPMI-8226 17.9 µM | ACHN 23.4 µM | MDA-MB-231 13.6 µM | SF-539 21.3 µM | UACC-257 20.7 µM | NCI-H23 22.7 µM | RXF 393 11.2 µM | OVCAR-4 19.3 µM | NCI-H460 28.4 µM | HOP-62 19.9 µM | NCI-H226 15.5 µM

COCC(=O)OC1CCn2c1nc1c2C(=O)C(C)=C(NC(C)=O)C1=O (stereo not given)
inactive: KM12 15.7 µM | TK-10 18.2 µM | SK-MEL-2 4.04 µM | HL-60 1.43 µM | K562 2.79 µM | LOX IMVI 4.34 µM | MDA-MB-435 1.89 µM | MOLT-4 1.14 µM | HT-29 9.93 µM | RPMI-8226 2.33 µM | ACHN 8.91 µM | MDA-MB-231 1.24 µM | SF-539 3.94 µM | UACC-257 3.97 µM | NCI-H23 7.85 µM | RXF 393 3.41 µM | OVCAR-4 1.85 µM | NCI-H460 17.5 µM | HOP-62 21.5 µM | NCI-H226 11.1 µM

CC(C)C(OC(=O)c1cc(NC(=S)c2ccccc2)ccc1Cl)C(C)C
inactive: KM12 5.69 µM | TK-10 21.5 µM | SK-MEL-2 16 µM | HL-60 10.6 µM | K562 25.7 µM | LOX IMVI 19.8 µM | MDA-MB-435 14.7 µM | MOLT-4 10.1 µM | HT-29 9.31 µM | RPMI-8226 13.3 µM | ACHN 14.9 µM | MDA-MB-231 20.2 µM | SF-539 24.4 µM | UACC-257 13.7 µM | NCI-H23 6.5 µM | RXF 393 13.1 µM | OVCAR-4 17.6 µM | NCI-H460 14.1 µM | HOP-62 29.6 µM | NCI-H226 16 µM

C[N+]1(CCCl)CC[N+](C)(CCCl)CC1 (stereo not given)
inactive: KM12 > 100 µM | TK-10 > 100 µM | SK-MEL-2 > 100 µM | HL-60 28.8 µM | K562 > 100 µM | LOX IMVI > 100 µM | MDA-MB-435 > 100 µM | MOLT-4 83.6 µM | HT-29 > 100 µM | RPMI-8226 > 100 µM | ACHN > 100 µM | MDA-MB-231 > 100 µM | SF-539 > 100 µM | UACC-257 > 100 µM | NCI-H23 > 100 µM | RXF 393 > 100 µM | OVCAR-4 > 100 µM | NCI-H460 > 100 µM | HOP-62 > 100 µM | NCI-H226 > 100 µM

O=C1c2ccccc2/C(=N\c2ccc3ccccc3c2)C1(C1=C(c2ccccc2)/C(=N/c2ccc3ccccc3c2)c2ccccc21)c1ccccc1 (stereo not given)
inactive: KM12 4.14 µM | TK-10 45.5 µM | SK-MEL-2 11.9 µM | HL-60 4.5 µM | K562 4.22 µM | LOX IMVI 4.01 µM | MDA-MB-435 3.33 µM | MOLT-4 2.58 µM | HT-29 3.48 µM | RPMI-8226 3.64 µM | ACHN 2.53 µM | MDA-MB-231 15.3 µM | SF-539 6.15 µM | UACC-257 5.73 µM | NCI-H23 4.09 µM | RXF 393 > 24 µM | OVCAR-4 5.37 µM | NCI-H460 3.32 µM | HOP-62 12.5 µM | NCI-H226 7.21 µM

Cc1nc2cc([N+](=O)[O-])ccc2c(NCCCN(C)C)c1C
inactive: KM12 6.05 µM | TK-10 23.5 µM | SK-MEL-2 10.5 µM | HL-60 28.8 µM | K562 3.77 µM | LOX IMVI 11 µM | MDA-MB-435 15.6 µM | MOLT-4 1.91 µM | HT-29 2.76 µM | RPMI-8226 12.9 µM | ACHN 20 µM | MDA-MB-231 3.34 µM | SF-539 13.7 µM | UACC-257 5.45 µM | NCI-H23 4.03 µM | RXF 393 11.1 µM | OVCAR-4 3.03 µM | NCI-H460 3.18 µM | HOP-62 10.9 µM | NCI-H226 5.08 µM
